Here are results for two compounds from patent publication US12440479B2, “Prevention or treatment of chronic organ injury” (GEORG-AUGUST-UNIVERSITAET GOETTINGEN, STIFTUNG …, priority 2018, dated 2025).

The subject of one experiment is TEC cultures. Put plainly: RT2 Profiler PCR arrays (transcription factor, hypoxia, drug metabolism) in TECs. In kind it is cell-based. As to the method: To compare qPCR-validated cDNA samples after FK506 treatment and DMSO control, gene expression profiling was performed using commercially available plates (PAHS-075Z/PAMM-002Z/PAMM032Z, SABiosciences, Qiagen, Hilden, Germany). HK-2 cells were plated in 6 well culture plates as previously described and stimulated with 150 ng/mL FK506, MCT cells with 200 pM FK506. After 6 hours, cells were dissolved and RNA was isolated, digested and reverse transcripted. The 25 ng cDNA equivalent of total RNA was added to the reaction mixture containing diluted 2× RT^2 SYBR Green ROX qPCR Mastermix (Qiagen, Hilden, Germany) in a final volume of 25 μL for each well of the RT2 Profiler PCR. PCR reactions were performed under recommended thermal cycling conditions (10 min at 95° C., 15 s at 95° C., 1 min at 60° C. for 40 cycles). To verify PCR specificity, dissociation curve analysis was generated. Relative levels of mRNA expression were normalized in all the samples with expression levels of included housekeeping genes, and data analysis was done using an web-based analysis software provided by SABiosciences. Transcription factor binding sites within the ALK3 proximal promoter was performed 5000 basepairs relative to transcriptional start site using […] database (98).

Another experiment deals with ARNT, ALK3, pSmad1/5/8. Put plainly: Kidney allograft biopsies of transplant recipients (immunolabelling, qRT-PCR). Format: in vivo, human. As to conditions: FK506-based immunosuppressive regimen as compared to CsA. How it is done:
The use of parts of human specimens for research purposes as approved by the Ethics Committee of the University Medicine Göttingen, clinical data are presented in Table 6.
Paraffin-embedded specimens were deparaffinized in xylene and rehydrated in ethanol containing distilled water. Tissue sections were stained using polyclonal antibodies against ALK3 (sc-20736, Santa Cruz Biotechnology, Dallas, USA) and ARNT (3718S, Cell Signaling, Danvers, USA), peroxidase labeling was performed using Vectastain Universal Elite ABC Kit (Vector Laboratories, Burlingame, USA) according to the manufacturer's protocol. AEC Substrate-Chromogen (Dako, Glostrup, Denmark) was applied for peroxidase visualization according to the manufacturer's protocol. Nuclear counterstain was performed by using Mayer's Hematoxylin Solution (Sigma, St. Louis, USA). […]
For SYBR-based real-time PCR, cDNA synthesis was performed by using DNase I digestion (Invitrogen, Carlsbad, USA) and SuperScript II Reverse Transcriptase (Invitrogen, Carlsbad, USA) according to the manufacturer's protocol. […] The relative expression levels were calculated using the equation 2^−ddCt.
In general terms: Quantitative PCR measures a nucleic acid by following its amplification.

The test system of experiment [1] is chronically injured livers. Kind of experiment: CCl4-induced liver fibrosis. As to conditions: 10 mg/kg subcutaneously per day starting one day prior. In kind it is in vivo, mice. How it is done:
Eight to twelve weeks-old C57BL/6 mice were intraperitoneally injected with 0.25 (first injection), 0.5 (second injection) and 1 mL/kg body weight CCI4 (25% v/v dissolved in sterile oil) twice a week (63). Mice were sacrificed after 42 days for further analyses. Mice were injected subcutaneously with 10 mg/kg body weight per day GPI-1046 (Santa Cruz Biotechnology, Dallas, USA) in DMSO once daily starting one day prior of surgery, control mice received equivalent volume of vehicle DMSO. For oral administration, GPI-1046 stock solution was diluted in glucose-water (5%) and orally applied on the basis of an average drinking volume of 3 mL and a body weight of 20 g per mouse. Three days after challenging with UUO, mice were treated orally with either vehicle buffer glucose (5%) or 30 mg/kg body weight per day GPI-1046, respectively. […] For morphometric analysis of interstitial fibrosis, fibrotic areas were assessed by using cellSens (Olympus, Tokyo, Japan) software. Ten visual fields were selected randomly for each MTS stained section at 200× magnification and the relative interstitial fibrotic area was evaluated by using a 10 mm2 graticule. Tubular damage was analysed after PAS stain and graded according to a semi-quantitative score of 0 to 3 (0: normal, 1: mild, 2: moderate, 3: severe) at 400× magnification in a total number of 100 tubules per section (158). […]

Take `C=CC[C@@H]1/C=C(\C)C[C@H](C)C[C@H](OC)[C@H]2O[C@@](O)(C(=O)C(=O)N3CCCC[C@H]3C(=O)O[C@H](/C(C)=C/[C@@H]3CC[C@@H](O)[C@H](OC)C3)[C@H](C)[C@@H](O)CC1=O)[C@H](C)C[C@@H]2OC` [FK506, tacrolimus]: the “induction of transcriptional factors AR, ARNT, CEPB, CREB1, GATA3 and MAX (array)” value with TEC cultures (TEC cultures upon FK506 exposure) was “at least 2 fold”. Further, in the experiment on TEC cultures (TECs exposed to FK506), the “pathways involved in hypoxic signaling or drug metabolism (mRNA expression arrays)” value was “did not markedly induce”. Further, in the experiment on ARNT, ALK3, pSmad1/5/8, the “immunolabelling of ARNT, ALK3 and pSmad1/5/8” value is reported as “significantly increased”; the “intrarenal ARNT and ALK3 mRNA expression levels” value was “Transcriptional induction”.
On to `CCC(C)(C)C(=O)C(=O)N1CCC[C@H]1C(=O)OCCCc1cccnc1` [GPI-1046, 3-(3-pyridyl)-1-propyl-(2S)-1-(3,3-dimethyl-1,2-dioxopentyl)-2-pyrrolidinedine carboxylate], for which, in experiment [1], the “ALK3-dependent canonical BMP signaling responses” value was “equally effective” and the protection from fibrogenesis entry was “equally effective”.
